Experimental data reported in ChEMBL document CHEMBL5608235, “Tricyclic Benzo[1,3]oxazinyloxazolidinones as Potent Antibacterial Agents against Drug-Resistant Pathogens” (J Med Chem, 2024).
≈ marks a conversion by molar mass, not a printed value.

Experiments:
[1] = AUC (0 to infinity) in BALB/c mouse at 10 mg/kg,po administration measured upto 24 hrs by LC-MS/MS analysis; type: ADME, organism-based; conditions: in vivo, po, 10 mg/kg, 24 h
[2] = Volume of distribution in BALB/c mouse at 1 mg/kg,iv administration measured upto 24 hrs by LC-MS/MS analysis; type: ADME, organism-based; conditions: in vivo
[3] = Drug concentration in BALB/c mouse plasma at 10 mg/kg,po administration measured within 15 mins by LC-MS/MS analysis; type: ADME, organism-based
[4] = Free AUC in BALB/c mouse at 10 mg/kg,po administration measured upto 24 hrs by LC-MS/MS analysis; type: ADME, organism-based; conditions: in vivo
[5] = Metabolic stability in human liver microsomes assessed as substrate remaining at 10 uM incubated for 60 mins in presence of NADPH by LC-MS/MS analysis; type: ADME, Microsome; conditions: read-out: Stability
[6] = Metabolic stability in ICR mouse liver microsomes assessed as compound remaining at 10 uM incubated for 60 mins in absence of NADPH by LC-MS/MS analysis; type: ADME, Microsome; conditions: read-out: Stability
[7] = AUC (0 to t) in BALB/c mouse at 10 mg/kg,po administration measured upto 24 hrs by LC-MS/MS analysis; type: ADME, organism-based; conditions: in vivo
[8] = Oral bioavailability in BALB/c mouse at 10 mg/kg administration measured upto 24 hrs by LC-MS/MS analysis; type: ADME, organism-based; conditions: in vivo, po, 10 mg/kg, 24 h
[9] = AUC (0 to infinity) in BALB/c mouse at 1 mg/kg,iv administration measured upto 24 hrs by LC-MS/MS analysis; type: ADME, organism-based; conditions: in vivo, iv, 1 mg/kg, 24 h
[10] = Cytotoxicity against African green monkey Vero cells incubated for 48 hrs by MTT assay; type: toxicity, cell-based, Chlorocebus sabaeus
[11] = system: Staphylococcus aureus; assay: Antibacterial activity against vancomycin intermediate Staphylococcus aureus ATCC700699 assessed as inhibition of bacterial growth incubated for 7 days by alamar blue assay; type: functional; conditions: ATCC700699, 168 h, time 7 day
[12] = system: Enterococcus faecalis; assay: Antibacterial activity against Linezolid resistant Enterococcus faecalis clinical isolate 20-1 assessed as inhibition of bacterial growth incubated for 7 days by alamar blue assay; type: functional; conditions: clinical isolate 20-1, 168 h, time 7 day
[13] = Cmax in BALB/c mouse at 10 mg/kg,po administration measured upto 24 hrs by LC-MS/MS analysis; type: ADME, organism-based; conditions: in vivo
[14] = Drug concentration in BALB/c mouse plasma at 10 mg/kg,po administration measured after 24 hrs by LC-MS/MS analysis; type: ADME, organism-based; conditions: in vivo
[15] = system: Enterococcus faecalis; assay: Antibacterial activity against Enterococcus faecalis ATCC29212 assessed as inhibition of bacterial growth incubated for 18 hrs by microdilution broth assay; type: functional
[16] = Tmax in BALB/c mouse at 10 mg/kg,po administration measured upto 24 hrs by LC-MS/MS analysis; type: ADME, organism-based; conditions: in vivo
[17] = system: Staphylococcus aureus; assay: Antibacterial activity against Linezolid resistant Staphylococcus aureus clinical isolate 20-2 assessed as inhibition of bacterial growth incubated for 7 days by alamar blue assay; type: functional; conditions: clinical isolate 20-2, 168 h, time 7 day
[18] = system: Mycobacterium tuberculosis; assay: Antibacterial activity against Mycobacterium tuberculosis H37Rv assessed as inhibition of bacterial growth incubated for 7 days by alamar blue assay; type: functional; conditions: 168 h, time 7 day
[19] = MRT (0 to t) in BALB/c mouse at 1 mg/kg,iv administration measured upto 24 hrs by LC-MS/MS analysis; type: ADME, organism-based; conditions: in vivo
[20] = system: Staphylococcus aureus; assay: Antibacterial activity against methicillin resistant Staphylococcus aureus clinical isolate 20-1 assessed as inhibition of bacterial growth incubated for 7 days by alamar blue assay; type: functional; conditions: clinical isolate 20-1, 168 h, time 7 day
[21] = system: Bacillus subtilis; assay: Antibacterial activity against Bacillus subtilis ATCC6633 assessed as inhibition of bacterial growth incubated for 18 hrs by microdilution broth assay; type: functional
[22] = MRT (0 to t) in BALB/c mouse at 10 mg/kg,po administration measured upto 24 hrs by LC-MS/MS analysis; type: ADME, organism-based; conditions: in vivo
[23] = MRT (0 to infinity) in BALB/c mouse at 10 mg/kg,po administration measured upto 24 hrs by LC-MS/MS analysis; type: ADME, organism-based; conditions: in vivo
[24] = system: Enterococcus faecalis; assay: Antibacterial activity against Linezolid resistant Enterococcus faecalis clinical isolate 20-2 assessed as inhibition of bacterial growth incubated for 7 days by alamar blue assay; type: functional; conditions: clinical isolate 20-2, 168 h, time 7 day
[25] = Terminal half life in BALB/c mouse at 10 mg/kg,po administration measured upto 24 hrs by LC-MS/MS analysis; type: ADME, organism-based; conditions: in vivo, read-out: beta t1/2 (converted)
[26] = system: Staphylococcus epidermidis; assay: Antibacterial activity against methicillin resistant Staphylococcus epidermidis clinical isolate 20-1 assessed as inhibition of bacterial growth incubated for 7 days by alamar blue assay; type: functional; conditions: clinical isolate 20-1, 168 h, time 7 day
[27] = system: Staphylococcus aureus; assay: Antibacterial activity against Staphylococcus aureus ATCC25923 assessed as inhibition of bacterial growth incubated for 18 hrs by microdilution broth assay; type: functional
[28] = system: Staphylococcus aureus; assay: Antibacterial activity against methicillin resistant Staphylococcus aureus clinical isolate 20-2 assessed as inhibition of bacterial growth incubated for 7 days by alamar blue assay; type: functional; conditions: clinical isolate 20-2, 168 h, time 7 day
[29] = Plasma protein binding in BALB/c mouse at 1 mg/kg,iv administration measured upto 24 hrs by LC-MS/MS analysis; type: ADME, organism-based; conditions: read-out: PPB (converted)
[30] = system: Staphylococcus aureus; assay: Antibacterial activity against Linezolid resistant Staphylococcus aureus clinical isolate 20-1 assessed as inhibition of bacterial growth incubated for 7 days by alamar blue assay; type: functional; conditions: clinical isolate 20-1, 168 h, time 7 day
[31] = Terminal half life in BALB/c mouse at 1 mg/kg,iv administration measured upto 24 hrs by LC-MS/MS analysis; type: ADME, organism-based; conditions: in vivo, read-out: beta t1/2 (converted)
[32] = Cmax in BALB/c mouse at 1 mg/kg,iv administration measured upto 24 hrs by LC-MS/MS analysis; type: ADME, organism-based; conditions: in vivo
[33] = system: Staphylococcus epidermidis; assay: Antibacterial activity against Staphylococcus epidermidis ATCC12228 assessed as inhibition of bacterial growth incubated for 18 hrs by microdilution broth assay; type: functional
[34] = Metabolic stability in ICR mouse liver microsomes assessed as substrate remaining at 10 uM incubated for 60 mins in presence of NADPH by LC-MS/MS analysis; type: ADME, Microsome; conditions: read-out: Stability
[35] = Metabolic stability in human liver microsomes assessed as compound remaining at 10 uM incubated for 60 mins in absence of NADPH by LC-MS/MS analysis; type: ADME, Microsome; conditions: read-out: Stability
[36] = Clearance in BALB/c mouse at 1 mg/kg,iv administration measured upto 24 hrs by LC-MS/MS analysis; type: ADME, organism-based; conditions: in vivo
[37] = system: Enterococcus; assay: Antibacterial activity against vancomycin resistant Enterococcus clinical isolate 20-1 assessed as inhibition of bacterial growth incubated for 7 days by alamar blue assay; type: functional; conditions: clinical isolate 20-1, 168 h, time 7 day
[38] = AUC (0 to t) in BALB/c mouse at 1 mg/kg,iv administration measured upto 24 hrs by LC-MS/MS analysis; type: ADME, organism-based; conditions: in vivo
[39] = system: Staphylococcus epidermidis; assay: Antibacterial activity against methicillin resistant Staphylococcus epidermidis clinical isolate 20-2 assessed as inhibition of bacterial growth incubated for 7 days by alamar blue assay; type: functional; conditions: clinical isolate 20-2, 168 h, time 7 day
[40] = MRT (0 to infinity) in BALB/c mouse at 1 mg/kg,iv administration measured upto 24 hrs by LC-MS/MS analysis; type: ADME, organism-based; conditions: in vivo

Question: With `COC(=O)NC[C@@H]1OC(=O)N2Cc3cc(-c4ccc(C#N)cc4)c(F)cc3O[C@@H]12` as the compound, how does the AUC [1] read?
Answer: 188361 ng·h/mL

Question: What about the Vd [2] of the same compound?
Answer: 0.818 L/kg

Question: And the concentration at 0.25 h [3]?
Answer: 1000 ng/mL

Question: What about the fAUC [4] of the same compound?
Answer: 9450 ng·h/mL

Question: And the remaining at 1 h, 10 µM [5]?
Answer: 113%

Question: And the remaining at 1 h, 10 µM [6]?
Answer: 112%

Question: What about the AUC(0-t) at 24 h [7] of the same compound?
Answer: 54300 ng·h/mL

Question: And the F [8]?
Answer: 79.8%

Question: And the AUC [9]?
Answer: 6893 ng·h/mL

Question: What about the IC50 at 48 h [10] of the same compound?
Answer: > 64 µg/mL

Question: And the MIC [11]?
Answer: 0.5 µg/mL (≈ 1.26 µM)

Question: What about the MIC [12] of the same compound?
Answer: 2 µg/mL (≈ 5.03 µM)

Question: What about the Cmax [13] of the same compound?
Answer: 2790 ng/mL

Question: And the Drug uptake [14]?
Answer: > 60%

Question: And the MIC [15]?
Answer: 0.25 µg/mL (≈ 0.629 µM)

Question: What about the Tmax [16] of the same compound?
Answer: 4 h

Question: And the MIC [17]?
Answer: 8 µg/mL (≈ 20.1 µM)

Question: And the MIC [18]?
Answer: 0.73 µg/mL (≈ 1.84 µM)

Question: What about the MRT last at 24 h [19] of the same compound?
Answer: 8.1 h

Question: What about the MIC [20] of the same compound?
Answer: 0.5 µg/mL (≈ 1.26 µM)

Question: What about the MIC [21] of the same compound?
Answer: 0.063 µg/mL (≈ 0.159 µM)

Question: What about the MRT last at 24 h [22] of the same compound?
Answer: 11.3 h

Question: And the MRT inf [23]?
Answer: 70.9 h

Question: And the MIC [24]?
Answer: 2 µg/mL (≈ 5.03 µM)

Question: What about the half-life [25] of the same compound?
Answer: 49.3 h

Question: And the MIC [26]?
Answer: 0.125 µg/mL (≈ 0.315 µM)

Question: And the MIC [27]?
Answer: 2 µg/mL (≈ 5.03 µM)

Question: What about the MIC [28] of the same compound?
Answer: 0.5 µg/mL (≈ 1.26 µM)

Question: What about the fraction unbound at 24 h [29] of the same compound?
Answer: 0.174

Question: What about the MIC [30] of the same compound?
Answer: 8 µg/mL (≈ 20.1 µM)

Question: What about the half-life [31] of the same compound?
Answer: 3.9 h

Question: What about the Cmax [32] of the same compound?
Answer: 514 ng/mL

Question: And the MIC [33]?
Answer: 0.032 µg/mL (≈ 0.0805 µM)

Question: What about the remaining at 1 h, 10 µM [34] of the same compound?
Answer: 114%

Question: And the remaining at 1 h, 10 µM [35]?
Answer: 108%

Question: What about the clearance [36] of the same compound?
Answer: 2.42 mL/min/kg

Question: And the MIC [37]?
Answer: 0.5 µg/mL (≈ 1.26 µM)

Question: What about the AUC(0-t) at 24 h [38] of the same compound?
Answer: 6810 ng·h/mL

Question: And the MIC [39]?
Answer: 0.125 µg/mL (≈ 0.315 µM)

Question: And the MRT inf [40]?
Answer: 8.4 h

Question: Which remaining at 1 h, 10 µM [5] does the source give for `COC(=O)NC[C@@H]1OC(=O)N2Cc3cc(-c4ccc(C#N)nc4)c(F)cc3O[C@@H]12` here?
Answer: 103%

Question: What about the remaining at 1 h, 10 µM [6] of the same compound?
Answer: 113%

Question: And the IC50 at 48 h [10]?
Answer: 33 µg/mL (≈ 82.8 µM)

Question: And the MIC [11]?
Answer: 1 µg/mL (≈ 2.51 µM)

Question: What about the MIC [12] of the same compound?
Answer: 4 µg/mL (≈ 10 µM)

Question: And the MIC [15]?
Answer: 0.5 µg/mL (≈ 1.26 µM)

Question: And the MIC [17]?
Answer: 16 µg/mL (≈ 40.2 µM)

Question: And the MIC [18]?
Answer: 0.97 µg/mL (≈ 2.44 µM)

Question: What about the MIC [20] of the same compound?
Answer: 0.5 µg/mL (≈ 1.26 µM)

Question: What about the MIC [21] of the same compound?
Answer: 0.125 µg/mL (≈ 0.314 µM)

Question: And the MIC [24]?
Answer: 4 µg/mL (≈ 10 µM)

Question: And the MIC [26]?
Answer: 0.25 µg/mL (≈ 0.628 µM)

Question: What about the MIC [27] of the same compound?
Answer: 8 µg/mL (≈ 20.1 µM)

Question: And the MIC [28]?
Answer: 0.5 µg/mL (≈ 1.26 µM)

Question: And the MIC [30]?
Answer: 16 µg/mL (≈ 40.2 µM)

Question: What about the MIC [33] of the same compound?
Answer: 0.25 µg/mL (≈ 0.628 µM)

Question: What about the remaining at 1 h, 10 µM [34] of the same compound?
Answer: 116%

Question: What about the remaining at 1 h, 10 µM [35] of the same compound?
Answer: 114%

Question: What about the MIC [37] of the same compound?
Answer: 1 µg/mL (≈ 2.51 µM)

Question: And the MIC [39]?
Answer: 0.25 µg/mL (≈ 0.628 µM)
